Assays:
FYN = biological target: T1, FYN (Homo sapiens, UniProt P06241); assay: Biochemical kinase assay (Reaction Biology, 33P ATP); conditions: 10 μM ATP
T1 construct: purchased Reaction Biology Corporation (assay run at the CRO)
Description: (§1) The biochemical kinase assay was performed at Reaction Biology Corporation (www.reactionbiology.com, Malvern, Pa.) following the procedures described in the reference (Anastassiadis T, et al Nat Biotechnol. 2011, 29, 1039). Specific kinase/substrate pairs along with required cofactors were prepared in reaction buffer; 20 mM Hepes pH 7.5, 10 mM MgCl2, 1 mM EGTA, 0.02% Brij35, 0.02 mg/ml BSA, 0.1 mM Na3VO4, 2 mM DTIT, 1% DMSO. Compounds were delivered into the reaction, followed ˜20 minutes later by addition of a mixture of ATP (Sigma, St. Louis Mo.) and ^33P ATP (Perkin Elmer, Waltham Mass.) to a final concentration of 10 μM. Reactions were carried out at room temperature for 120 min, followed by spotting of the reactions onto P81 ion exchange filter paper (Whatman Inc., Piscataway, N.J.). Unbound phosphate was removed by extensive washing of filters in 0.75% phosphoric acid. […] IC50 values and curve fits were obtained using Prism (GraphPad Software).

HCK = biological target: T2, HCK (Homo sapiens, UniProt P08631); assay: as above; conditions: 10 μM ATP
T2 construct: purchased Reaction Biology Corporation (assay run at the CRO)
Description: as §1

RET (L790F) = biological target: T3, RET (L790F) (Homo sapiens, UniProt P07949, L790F); assay: as above; conditions: 10 μM ATP
T3 construct: purchased Reaction Biology Corporation (assay run at the CRO)
Description: as §1

RET (M918T) = biological target: T4, RET (M918T) (Homo sapiens, UniProt P07949, M918T); assay: as above; conditions: 10 μM ATP
T4 construct: purchased Reaction Biology Corporation (assay run at the CRO)
Description: as §1

RET (R749T) = biological target: T5, RET (R749T) (Homo sapiens, UniProt P07949, R749T); assay: as above; conditions: 10 μM ATP
T5 construct: purchased Reaction Biology Corporation (assay run at the CRO)
Description: as §1

RET (R813Q) = biological target: T6, RET (R813Q) (Homo sapiens, UniProt P07949, R813Q); assay: as above; conditions: 10 μM ATP
T6 construct: purchased Reaction Biology Corporation (assay run at the CRO)
Description: as §1

RET (S904A) = biological target: T7, RET (S904A) (Homo sapiens, UniProt P07949, S904A); assay: as above; conditions: 10 μM ATP
T7 construct: purchased Reaction Biology Corporation (assay run at the CRO)
Description: as §1

RET (V778I) = biological target: T8, RET (V778I) (Homo sapiens, UniProt P07949, V778I); assay: as above; conditions: 10 μM ATP
T8 construct: purchased Reaction Biology Corporation (assay run at the CRO)
Description: as §1

RET (Y791F) = biological target: T9, RET (Y791F) (Homo sapiens, UniProt P07949, Y791F); assay: as above; conditions: 10 μM ATP
T9 construct: purchased Reaction Biology Corporation (assay run at the CRO)
Description: as §1

RET (Y806H) = biological target: T10, RET (Y806H) (Homo sapiens, UniProt P07949, Y806H); assay: as above; conditions: 10 μM ATP
T10 construct: purchased Reaction Biology Corporation (assay run at the CRO)
Description: as §1

RET-CCDC6 (PTC1) = biological target: T11, RET-CCDC6 (PTC1) (Homo sapiens, UniProt P07949); assay: as above; conditions: 10 μM ATP
T11 construct: fusion transcripts composed of the 3′ end of RET kinase domain and the 5′ end of separate partner genes; CCDC6 N-terminal part (fusion partner); purchased Reaction Biology Corporation (assay run at the CRO); the other entry of the earlier key: CCDC6 (Q16204, Coiled-coil domain-containing protein 6)
Description: as §1

RET-NCOA4 (PTC3) = biological target: T12, RET-NCOA4 (PTC3) (Homo sapiens, UniProt P07949); assay: as above; conditions: 10 μM ATP
T12 construct: fusion transcripts composed of the 3′ end of RET kinase domain and the 5′ end of separate partner genes; NCOA4 N-terminal part (fusion partner); purchased Reaction Biology Corporation (assay run at the CRO)
Description: as §1

Src = biological target: T13, Src (Homo sapiens, UniProt P12931); assay: as above; conditions: 10 μM ATP
T13 construct: purchased Reaction Biology Corporation (assay run at the CRO)
Description: as §1

YES = biological target: T14, YES (Homo sapiens, UniProt P07947); assay: as above; conditions: 10 μM ATP
T14 construct: purchased Reaction Biology Corporation (assay run at the CRO)
Description: as §1

BaF3 EML4-ALK = biological target: T15, BaF3 EML4-ALK (Homo sapiens, UniProt Q9UM73); assay: Cell proliferation assay (CellTiter-Glo, 72 hours); assay type: cell-based; conditions: anti-cell proliferation
T15 construct: The EML4-ALK gene (variant 1) was synthesized at GenScript and cloned into pCDH-CMV-MCS-EF1-Puro plasmid (System Biosciences, Inc); fused on or other part: Q9HC35 (Echinoderm microtubule-associated protein-like 4)
Summary of the method: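 Ba/F3 cells were stably transduced with wild-type EML4-ALK variant 1 and selected for IL-3-independent growth. Cells were seeded for 24 h, then exposed to compounds for 72 h at 37 °C, 5% CO2. Viability was read as ATP luminescence and IC50 values were fitted.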

BaF3 KIF5B-RET = biological target: T16, BaF3 KIF5B-RET (Homo sapiens, UniProt P07949); assay: Cell proliferation assay (CellTiter-Glo, 72 hours); assay type: cell-based; conditions: anti-cell proliferation, read-out: BaF3 KIF5B-RET IC50
T16 construct: fused on or other part: P33176 (Kinesin-1 heavy chain)
Summary of the method: (§2)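 Ba/F3 cells were lentivirally transduced with wild-type or mutant KIF5B-RET, puromycin-selected and grown without IL-3. CellTiter-Glo ATP luminescence read viability, and IC50 values came from curve fitting.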

BaF3 KIF5B-RET_G810R = biological target: T17, BaF3 KIF5B-RET_G810R (Homo sapiens, UniProt P07949, G810R, cells depend on it); assay: Cell proliferation assay (CellTiter-Glo, 72 hours); assay type: cell-based; conditions: anti-cell proliferation, read-out: BaF3 KIF5B-RET_G810R IC50
T17 construct: fused on or other part: P33176 (Kinesin-1 heavy chain)

BaF3 KIF5B-RET_V804M = biological target: T18, BaF3 KIF5B-RET_V804M (Homo sapiens, UniProt P07949, V804M, cells depend on it); assay: Cell proliferation assay (CellTiter-Glo, 72 hours); assay type: cell-based; conditions: anti-cell proliferation, read-out: BaF3 KIF5B-RET_V804M IC50
T18 construct: fused on or other part: P33176 (Kinesin-1 heavy chain)
Summary of the method: as §2

T16 sequence (P07949 whole entry, change not shown, the tested form may be a part): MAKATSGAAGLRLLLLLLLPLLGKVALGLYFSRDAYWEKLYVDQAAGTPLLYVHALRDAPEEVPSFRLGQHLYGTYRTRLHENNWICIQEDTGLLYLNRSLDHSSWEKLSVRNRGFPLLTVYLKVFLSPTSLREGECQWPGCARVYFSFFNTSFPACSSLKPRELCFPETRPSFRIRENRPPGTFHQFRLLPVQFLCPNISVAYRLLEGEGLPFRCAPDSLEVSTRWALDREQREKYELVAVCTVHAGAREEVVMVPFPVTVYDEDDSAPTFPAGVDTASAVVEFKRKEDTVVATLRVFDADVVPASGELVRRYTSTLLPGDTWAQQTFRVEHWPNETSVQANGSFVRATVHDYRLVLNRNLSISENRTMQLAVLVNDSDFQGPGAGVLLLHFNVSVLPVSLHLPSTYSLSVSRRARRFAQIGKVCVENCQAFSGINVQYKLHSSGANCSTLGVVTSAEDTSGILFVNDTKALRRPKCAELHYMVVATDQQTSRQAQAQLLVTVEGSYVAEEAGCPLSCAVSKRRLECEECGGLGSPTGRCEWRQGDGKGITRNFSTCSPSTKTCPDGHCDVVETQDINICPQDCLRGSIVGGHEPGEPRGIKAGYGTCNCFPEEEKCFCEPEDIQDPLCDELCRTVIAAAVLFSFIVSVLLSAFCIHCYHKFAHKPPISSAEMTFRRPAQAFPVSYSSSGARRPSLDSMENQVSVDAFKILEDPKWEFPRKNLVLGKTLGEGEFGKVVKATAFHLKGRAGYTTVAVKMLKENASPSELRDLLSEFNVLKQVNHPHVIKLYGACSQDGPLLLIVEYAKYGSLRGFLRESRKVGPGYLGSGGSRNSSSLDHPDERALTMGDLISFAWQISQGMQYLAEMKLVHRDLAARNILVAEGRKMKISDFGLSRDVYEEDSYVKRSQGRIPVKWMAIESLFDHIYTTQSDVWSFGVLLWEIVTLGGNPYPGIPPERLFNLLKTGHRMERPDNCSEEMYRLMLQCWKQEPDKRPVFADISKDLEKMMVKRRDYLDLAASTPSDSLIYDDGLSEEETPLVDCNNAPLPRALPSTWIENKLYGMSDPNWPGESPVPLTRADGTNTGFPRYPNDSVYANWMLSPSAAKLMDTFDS
T11 sequence (P07949 with tags, fused parts or gaps): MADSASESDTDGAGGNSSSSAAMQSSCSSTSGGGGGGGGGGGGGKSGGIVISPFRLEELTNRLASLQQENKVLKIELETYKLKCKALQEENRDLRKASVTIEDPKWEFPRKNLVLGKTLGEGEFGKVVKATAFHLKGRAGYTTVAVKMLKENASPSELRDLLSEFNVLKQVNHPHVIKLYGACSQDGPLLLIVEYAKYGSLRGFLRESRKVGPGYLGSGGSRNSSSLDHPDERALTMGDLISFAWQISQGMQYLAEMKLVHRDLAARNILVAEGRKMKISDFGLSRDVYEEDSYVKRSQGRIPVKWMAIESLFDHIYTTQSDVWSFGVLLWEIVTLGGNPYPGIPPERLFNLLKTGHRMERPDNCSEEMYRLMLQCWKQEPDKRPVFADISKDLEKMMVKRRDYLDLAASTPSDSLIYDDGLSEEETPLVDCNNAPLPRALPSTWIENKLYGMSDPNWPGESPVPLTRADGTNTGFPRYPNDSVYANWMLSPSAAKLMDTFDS
T18 sequence (P07949 whole entry V804M, the tested form may be a part): as the sequence (P07949 whole entry, change not shown, the tested form may be a part) above, with V804M counted along it
T4 sequence (P07949 29-1114 M918T): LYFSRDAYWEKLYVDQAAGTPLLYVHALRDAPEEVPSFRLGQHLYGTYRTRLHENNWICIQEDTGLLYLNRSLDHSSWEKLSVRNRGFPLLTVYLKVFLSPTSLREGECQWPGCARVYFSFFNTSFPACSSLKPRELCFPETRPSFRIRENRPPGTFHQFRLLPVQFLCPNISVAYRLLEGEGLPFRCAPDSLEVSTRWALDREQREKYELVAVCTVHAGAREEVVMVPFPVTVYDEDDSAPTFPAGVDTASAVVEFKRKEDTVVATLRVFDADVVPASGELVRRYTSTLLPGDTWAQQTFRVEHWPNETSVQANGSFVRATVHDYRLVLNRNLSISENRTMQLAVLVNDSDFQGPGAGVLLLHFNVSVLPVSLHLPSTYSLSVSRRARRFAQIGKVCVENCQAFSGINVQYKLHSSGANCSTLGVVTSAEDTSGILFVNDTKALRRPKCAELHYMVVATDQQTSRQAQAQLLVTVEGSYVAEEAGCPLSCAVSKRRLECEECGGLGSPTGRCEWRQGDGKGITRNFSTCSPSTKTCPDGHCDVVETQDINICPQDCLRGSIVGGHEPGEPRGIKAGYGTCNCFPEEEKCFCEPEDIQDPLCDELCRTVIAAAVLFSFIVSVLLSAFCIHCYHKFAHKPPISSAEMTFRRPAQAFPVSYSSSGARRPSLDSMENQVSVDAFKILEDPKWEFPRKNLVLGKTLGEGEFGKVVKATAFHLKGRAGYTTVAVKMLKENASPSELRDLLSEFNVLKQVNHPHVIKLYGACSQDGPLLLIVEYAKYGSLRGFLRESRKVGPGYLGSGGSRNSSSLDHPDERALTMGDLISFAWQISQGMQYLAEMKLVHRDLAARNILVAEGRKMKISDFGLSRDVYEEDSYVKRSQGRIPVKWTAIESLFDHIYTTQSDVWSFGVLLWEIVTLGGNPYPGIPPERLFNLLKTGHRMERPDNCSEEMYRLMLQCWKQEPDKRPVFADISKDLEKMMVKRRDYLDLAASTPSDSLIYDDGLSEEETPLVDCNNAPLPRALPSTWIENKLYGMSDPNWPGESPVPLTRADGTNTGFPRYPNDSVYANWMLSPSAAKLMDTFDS
T10 sequence (P07949 29-1114 Y806H): as the sequence (P07949 29-1114 M918T) above, with Y778H, T890M counted along it

IC50 (FYN)	IC50 (HCK)	IC50 (RET (L790F))	IC50 (RET (M918T))	IC50 (RET (R749T))	IC50 (RET (R813Q))	IC50 (RET (S904A))	IC50 (RET (V778I))	IC50 (RET (Y791F))	IC50 (RET (Y806H))	IC50 (RET-CCDC6 (PTC1))	IC50 (RET-NCOA4 (PTC3))	IC50 (Src)	IC50 (YES)	GI50 (BaF3 EML4-ALK)	GI50 (BaF3 KIF5B-RET)	GI50 (BaF3 KIF5B-RET_G810R)	GI50 (BaF3 KIF5B-RET_V804M)	Compound
1.81 nM	1.95 nM	0.12 nM	0.114 nM	0.271 nM	0.341 nM	0.159 nM	< 0.0508 nM	< 0.0508 nM	0.385 nM	0.0893 nM	0.0635 nM	0.875 nM	1.72 nM	211 nM	0.25 nM	30 nM	1000 nM	C[C@H]1CNC(=O)c2cnn3cc4c(nc23)N(Cc2cc(F)ccc2O1)[C@@H]1CCC[C@@H]1O4 [Compound 1, (3aR,11S,20aS)-7-fluoro-11-methyl-2,3,3a,12,13,20a-hexahydro-1H,5H-17-19-(metheno)cyclopenta[5,6][1,4] oxazino[3,4-i]pyrazolo[4,3-f][1,4,8,10]benzoxatriacyclotridecin-14(11H)-one]
1.94 nM	2.71 nM	1.31 nM	1.42 nM	0.32 nM	2.46 nM	1.22 nM	0.233 nM	7.95 nM	0.261 nM	1.97 nM	0.691 nM	1.46 nM	2.64 nM	516 nM	2.4 nM	22 nM	598 nM	C[C@H]1CNC(=O)c2cnn3cc4c(nc23)N(Cc2cc(F)cnc2O1)[C@@H]1CCC[C@@H]1O4 [Compound 5, (3aR,11S,20aS)-7-fluoro-11-methyl-2,3,3a,12,13,20a-hexahydro-1H,5H-17-19-(metheno)cyclopenta[5,6][1,4] oxazino[3,4-i]pyrazolo[4,3-f]pyrido[3,2-l][1,4,8,10]oxatriazacyclotridecin-14(11H)-one]

Source: US10745416B2, “Macrocyclic compounds for treating disease” (Turning Point Therapeutics, Inc., priority 2017, dated 2020)
